Patent publication US20210290765A1, “SURFACTANTS FOR HEALTHCARE PRODUCTS” (AdvanSix Resins & Chemicals LLC, priority 2020, published 2021)

Legend:
Type in all cases: physicochemical
[1] = Wetting properties: contact angle on solid substrates, optical contact angle goniometer; details: 10x CMC
Source text: Surface-active compounds may also be assessed by their wetting ability on solid substrates as measured by the contact angle. When a liquid droplet comes in contact with a solid surface in a third medium, such as air, a three-phase line forms among the liquid, the gas and the solid. The angle between the surface tension unit vector, acting at the three-phase line and tangent at the liquid droplet, and the surface is described as the contact angle. The contact angle (also known as wetting angle) is a measure of the wettability of a solid by a liquid. In the case of complete wetting, the liquid is completely spread over the solid and the contact angle is 0°. Wetting properties are typically measured for a given compound at the concentration of 1-100×CMC, however, it is not a property that is concentration-dependent therefore measurements of wetting properties can be measured at concentrations that are higher or lower.
In one method, an optical contact angle goniometer may be used to measure the contact angle. This device uses a digital camera and software to extract the contact angle by analyze the contour shape of a sessile droplet of liquid on a surface.
(§1) Nuclear magnetic resonance (NMR) spectroscopy was performed on a Bruker 500 MHz spectrometer. The critical micelle concentration (CMC) was determined by the Wilhelmy plate method at 23° C. with a tensiometer (DCAT 11, DataPhysics Instruments GmbH) equipped with a Pt—Ir plate. Dynamic surface tension was determined with a bubble pressure tensiometer (Krüss BP100, Krüss GmbH), at 23° C. Contact angle was determined with the optical contact angle goniometer (OCA 15 Pro, DataPhysics GmbH) equipped with a digital camera.

[2] = Critical micelle concentration (CMC) and surface tension versus concentration in water, Wilhelmy plate method; details: for plateau value of minimum surface tension that can be reached / surface tension at the CMC (from the plot) / critical micelle concentration (CMC): 23° C.; for plateau value of minimum surface tension that can be reached / surface tension at the CMC (from the plot): pH=7; for critical micelle concentration (CMC): pH=7, Wilhelmy plate
Source text: These properties may be measured and described by various methods. One method by which surfactants may be described is by the molecule's critical micelle concentration (CMC). CMC may be defined as the concentration of a surfactant at which micelles form, and above which all additional surfactant is incorporated into micelles.
As surfactant concentration increases, surface tension decreases. Once the surface is completely overlaid with surfactant molecules, micelles begin to form. This point represents the CMC, as well as the minimum surface tension. Further addition of surfactant will not further affect the surface tension. CMC may therefore be measured by observing the change in surface tension as a function of surfactant concentration. One such method for measuring this value is the Wilhemy plate method. A Wilhelmy plate is usually a thin iridium-platinum plate attached to a balance by a wire and placed perpendicularly to the air-liquid interface. The balance is used to measure the force exerted on the plate by wetting. This value is then used to calculate the surface tension (γ) according to Equation 1: […]
wherein I is equal to the wetted perimeter (2w+2d, in which w and d are the plate thickness and width, respectively) and cos θ, the contact angle between the liquid and the plate, is assumed to be 0 in the absence of an extant literature value.
as §1

[3] = Dynamic surface tension, bubble pressure tensiometer
Source text: Another parameter used to assess the performance of surfactants is dynamic surface tension. The dynamic surface tension is the value of the surface tension for a particular surface or interface age. In the case of liquids with added surfactants, this can differ from the equilibrium value. Immediately after a surface is produced, the surface tension is equal to that of the pure liquid. As described above, surfactants reduce surface tension; therefore, the surface tension drops until an equilibrium value is reached. The time required for equilibrium to be reached depends on the diffusion rate and the adsorption rate of the surfactant.
One method by which dynamic surface tension is measured relies upon a bubble pressure tensiometer. This device measures the maximum internal pressure of a gas bubble that is formed in a liquid by means of a capillary. The measured value corresponds to the surface tension at a certain surface age, the time from the start of the bubble formation to the occurrence of the pressure maximum. The dependence of surface tension on surface age can be measured by varying the speed at which bubbles are produced.
as §1

[4] = substrate Polyethylene terephthalate
[5] = surface age 1 ms, air-water interface, 23° C.

SMILES | CA of Surfactant (contact angle) ([1]; substrate Nylon) [°] | CA of Surfactant (contact angle) [1, 4] [°] | CA of Surfactant (contact angle) ([1]; substrate Polyethylene-HD) [°] | CA of Surfactant (contact angle) ([1]; substrate Teflon) [°] | plateau value of minimum surface tension that can be reached [2] | surface tension at the CMC (from the plot) [2] | critical micelle concentration (CMC) [2] | time in which the compound fully saturated the surface ([3]; air-water interface, 23° C.) | dynamic surface tension [3, 5] | other results
CCCCCCCCCCCCOC(=O)CCCCC[N+](C)(C)C.[I-] [Surfactant 1, 6-(dodecyloxy)-N,N,N-trimethyl-6-oxohexan-1-aminium iodide] | 31.5 | 38.4 | 32 | 67.1 | about 33 mN/m | about 34 mN/m | about 1 mmol |  | about 55.5 mN/m | surface tension ([2]; at a concentration of 1.0 mmol or greater): about 33.8 mN/m; dynamic surface tension ([3]; surface age 75 ms, air-water interface, 23° C.): about 39.9 mN/m; dynamic surface tension ([3]; surface age 50,410 ms, air-water interface, 23° C.): about 34 mN/m
CCCCCCCCCCCCOC(=O)CCCCC[N+](C)(C)CCCCS(=O)(=O)[O-] [Surfactant 4, 4-((6-(dodecyloxy)-6-oxohexyl)dimethylammonio)butane-1-sulfonate] | 25.7 | 35.6 | 46.5 | 62.7 | about 38 mN/m | about 38 mN/m | about 0.1 mmol | approximately 1 seconds |  | surface tension ([2]; at a concentration of 1 mmol or greater): ≤ 37 mN/m; dynamic surface tension ([3]; surface age of 4000 ms or greater): ≤ 40.5 mN/m
CCCCCCCCCCCCOC(=O)CCCCC[N+](C)(C)[O-] [Surfactant 2, dodecyl 6-(dimethylamino)hexanoate N-oxide] | 21.7 | 24.5 | 39.3 | 57.4 | about 28 mN/m | ≤ 30 mN/m | about 0.08 mmol | approximately 7.6 seconds |  | surface tension ([2]; at a concentration of 0.08 mmol or greater): ≤ 30 mN/m; dynamic surface tension ([3]; surface age of 4900 ms or greater): ≤ 40 mN/m

Now from value to compound, other results behind:

CA of Surfactant (contact angle) ([1]; substrate Nylon) [°] | CA of Surfactant (contact angle) [1, 4] [°] | CA of Surfactant (contact angle) ([1]; substrate Polyethylene-HD) [°] | CA of Surfactant (contact angle) ([1]; substrate Teflon) [°] | plateau value of minimum surface tension that can be reached [2] | surface tension at the CMC (from the plot) [2] | critical micelle concentration (CMC) [2] | time in which the compound fully saturated the surface ([3]; air-water interface, 23° C.) | dynamic surface tension [3, 5] | SMILES | other results
18.2 | 15.3 | 16.6 | 39.3 | about 23 mN/m | about 23 mN/m | about 0.75 mmol | approximately 1.5 seconds |  | CCCCCCCCCCCCOC(=O)CCCCCN.Cl [Surfactant 5, 6-(dodecyloxy)-6-oxohexan-1-aminium chloride] | surface tension ([2]; at a concentration of 0.7 mmol or greater): ≤ 23.2 mN/m; dynamic surface tension ([3]; surface age of 3185 ms or greater): ≤ 28.5 mN/m
15 | 18.3 | 42.5 | 66.6 | about 30 mN/m | ≤ 30 mN/m | about 1.4 mmol |  | about 50 mN/m | CCCCCCCCCCCCOC(=O)CCCCCN(C)C.Cl [Surfactant 3, 6-(dodecyloxy)-N,N-dimethyl-6-oxohexan-1-aminium chloride] | surface tension ([2]; at a concentration of 2.7 mmol or greater): ≤ 33 mN/m; dynamic surface tension ([3]; surface age 100 ms, air-water interface, 23° C.): about 40 mN/m; dynamic surface tension ([3]; surface age 50,000 ms, air-water interface, 23° C.): about 34 mN/m
